The results in this text go back to publication PMC4198181, “Gold(I) Complexes of 9-Deazahypoxanthine as Selective Antitumor and Anti-Inflammatory Agents” (PLoS ONE, 2014).

SMILES strings stand for the structures.

Data set [1] has as its system primary culture of human hepatocytes (HEP220). Briefly: MTT in vitro cytotoxicity, primary human hepatocytes. The data set is classed as cell-based. The conditions noted are these: for IC50: 24 h treatment, MTT, read-out: IC50±S.E., HEP220 (healthy human hepatocytes). The method, then:
(§1) In vitro cytotoxic activity was determined by the MTT assay in human breast adenocarcinoma (MCF7; ECACC no. 86012803), human osteosarcoma (HOS; ECACC no. 87070202), lung carcinoma (A549; ECACC no. 86012804), malignant melanoma (G361; ECACC no. 88030401), cervix epitheloid carcinoma (HeLa; ECACC no. 93021013), ovarian carcinoma (A2780; ECACC no. 93112519), cisplatin-resistant ovarian carcinoma (A2780R; […] ECACC no 105092802) cancer cell lines, purchased from European Collection of Cell Cultures (ECACC). […] The primary culture of human hepatocytes (HEP220, batch number HEP220819) was obtained from Biopredic International (France). The culture medium was Williams and HAM's F-12 (1∶1) supplemented with penicillin, streptomycin, ascorbic acid, linoleic acid, holo-transferin, ethanolamine, glucagon, insulin, dexamethasone, pyruvate, glucose, glutamine, amphotericin. The medium was enriched for plating with 2% foetal calf serum (v/v). The medium was exchanged for a serum-free medium the day after and the culture was stabilized for additional 24 h. Thereafter, the cells were ready for treatments. […] The MTT assay was performed spectrophotometrically at 540 nm (TECAN, Schoeller Instruments LLC). The cytotoxicity data were expressed as the percentage of viability, where 100% represented the treatments with vehicle (0.1% DMF or 0.1% DMSO). The cytotoxicity data from the cancer cell lines were acquired from three independent experiments (conducted in triplicate) using cells from different passages. The IC50 values were calculated from viability curves. The results are presented as arithmetic means±standard error of the mean (S.E.).

For data set [2], the system named is THP-1 monocytic leukaemia cells. Briefly: WST-1 in vitro cytotoxicity, THP-1. It counts as cell-based, human. As to conditions: 24 h treatment, WST-1, 0.16–10.00 µM; read-out: IC50±S.E., THP-1. The method, then: Before the in vitro anti-inflammatory testing, in vitro cytotoxicity on human monocytic leukaemia cells (THP-1, ECACC no. 88081201) was determined using the WST-1 assay. The THP-1 cells (floating monocytes, 500 000 cells/mL) were incubated in 100 µL of the serum-free RPMI 1640 medium and seeded into 96-well plates in triplicate at 37°C. Measurements were taken 24 h after the treatment with the tested compounds dissolved in 0.1% DMSO in the concentration range of 0.16–10.00 µM. Viability was determined by the WST-1 test according to the manufacturer's manual. The amount of the formed formazan (which correlates to the number of metabolically active cells in the culture) was calculated as a percentage of the control cells, which were treated only with 0.1% DMSO and was set-up as 100%. The IC50 values of the tested compounds were calculated from the obtained data. The WST-1 assay was performed spectrophotometrically at 440 nm (FLUOstar Omega, BMG Labtech).
The cytotoxicity data were expressed as the percentage of viability, where 100% represented the treatments with vehicle (0.1% DMF or 0.1% DMSO). The cytotoxicity data from the cancer cell lines were acquired from three independent experiments (conducted in triplicate) using cells from different passages. The IC50 values were calculated from viability curves. The results are presented as arithmetic means±standard error of the mean (S.E.). The significance of the differences between the results was assessed by the ANOVA analysis with p<0.05 considered to be significant (QC Expert 3.2, Statistical software, TriloByte Ltd., Pardubice, Czech Republic).

The subject of data set [3] is MCF7 breast carcinoma cells. Briefly: MTT in vitro cytotoxicity, MCF7. It counts as cell-based, human. As to conditions: 24 h treatment, read-out: IC50±S.E., MCF7. The method, then: as §1
A further data set deals with IL-1β mRNA. Briefly: IL-1β gene expression by RT-qPCR in LPS-stimulated THP-1 macrophages. It counts as cell-based, human. The conditions noted are these: 300 nM, 2 h after LPS, normalised to β-actin. The method, then:
For the determination of biological activity, we used the human monocytic leukaemia cell line THP-1 (ECACC, Salisbury, UK). The cells were cultivated at 37°C in the RPMI 1640 medium supplemented with 2 mM L-glutamine, 10% FBS, 100 U/mL of penicillin and 100 µg/mL of streptomycin in a humidified atmosphere containing 5% CO2. Stabilized cells (3rd–15th passage) were split into microtitration plates to get a concentration of 500 000 cells/mL and the differentiation to macrophages was induced by phorbol myristate acetate (PMA) dissolved in dimethyl sulfoxide (DMSO) at the final concentration of 50 ng/ml, and the cells were incubated for 24 h. In comparison with monocytes, differentiated macrophages tend to adhere to the bottoms of the cultivation plates. For next 24 h the cells were incubated with a fresh complete RPMI medium, i.e. containing antibiotics and FBS, without PMA. The medium was then aspirated, and the cells were washed with PBS and cultivated for next 24 hours in serum-free RPMI 1640 medium. These prepared macrophages were used for the detection of inflammatory response.
In the order to evaluate the expression of TNF-α, IL-1β, and β-actin mRNA, total RNA was isolated directly from the LPS-stimulated THP-1 cells. THP-1 macrophages were pretreated with compounds 2, 5, and Auranofin at the concentration of 300 nM or the vehicle (0.1% DMSO) only. After 1 h of the incubation, the inflammatory response was induced by LPS [except for the control cells (CTRL)]. After 2 h of the incubation with LPS, the medium was aspirated and the total RNA was isolated directly from the cells in cultivation plates using a RealTime Ready Cell Lysis Kit (Roche), according to the manufacturer's instructions.
The gene expression was quantified by two-step reverse-transcription quantitative (real-time) PCR (RT-qPCR). The reverse transcription step was performed by Transcriptor Universal cDNA Master using cell lysate as a template. […] The results were normalized to the amount of ROX reference dye, and the change in gene expression was determined by the 2^−ΔΔCT method. […]
(In general: In qPCR the cycle at which signal appears reflects the starting amount.)

Data set [4] has as its system A549 lung carcinoma cells. Briefly: MTT in vitro cytotoxicity, A549. It counts as cell-based, human. As to conditions: 24 h treatment, read-out: IC50±S.E., A549. The method, then:
as §1

In data set [5] the test system is G361 malignant melanoma cells. Briefly: MTT in vitro cytotoxicity, G361. The conditions noted are these: 24 h treatment, read-out: IC50±S.E., G361. The data set is classed as cell-based, human. The method, then:
as §1

The next data set deals with HOS osteosarcoma cells. Briefly: MTT in vitro cytotoxicity, HOS. The conditions noted are these: 24 h treatment, read-out: IC50±S.E., HOS. The data set is classed as cell-based, human. The method, then:
as §1

The term IC50 denotes the point on the concentration scale where inhibition reaches its midpoint.

As to `CC(C)Oc1ncnc2cc[n]([Au])c12.c1ccc(P(c2ccccc2)c2ccccc2)cc1` [complex 2, [Au(L2)(PPh3)]], the IC50 in data set [1] turned out to be 18.5 ± 1.5 µM; in data set [2] it was 0.8 ± 0.1 µM; in data set [3], 0.6 ± 0.1 µM; in data set [4] it was 17.2 ± 0.7 µM; in data set [5], 3.4 ± 0.1 µM; in the data set with HOS osteosarcoma cells, 0.9 ± 0.2 µM. Besides, the “times lower cytotoxicity against healthy human cells (HEP220) than cancer cell lines” value in data set [1] (complex 2: MCF7 vs. HEP220) is on record as approximately 30 times. Besides, in the data set on IL-1β mRNA, the “effect on IL-1β mRNA transcription” value is reported as “significantly reduce the transcription”.

`[Au][n]1ccc2ncnc(OCCc3ccccc3)c21.c1ccc(P(c2ccccc2)c2ccccc2)cc1` [complex 5]: the IC50 was 19 ± 1.8 µM in data set [1]; 1.4 ± 0.1 µM in data set [2]; more than 50 µM in data set [3]; 18.3 ± 0.5 µM in data set [4]; 3.5 ± 0.2 µM in data set [5]; 2.9 ± 0.1 µM with HOS osteosarcoma cells. In addition, in the data set on IL-1β mRNA, the “effect on IL-1β mRNA transcription” value is reported as “significantly reduce the transcription”.
